# Experimental data from EP0052437A1, “Antibacterial compounds, processes for their preparation and compositions containing them” (BEECHAM GROUP PLC, priority 1980, dated 1982).
# How the values were obtained:
# Type in all cases: cell-based
# Past. multocida PA2 = assay: Veterinary bacteria MIC; details: Pasteurella multocida, Diagnostic Sensitivity Test Agar, 18 hours at 37°C
# Procedure: (§1) The values were determined using a two fold serial dilutions.in Diagnostic Sensitivity Test Agar with an inoculum of 10^4 organisms and incubation for 18 hours at 37°C.
# Staph. aureus Oxford [1] = assay: Veterinary bacteria MIC; details: Staphylococcus aureus, Diagnostic Sensitivity Test Agar, 18 hours at 37°C
# Procedure: as §1
# Past. haemolytica PA5 = assay: Veterinary bacteria MIC; details: Mannheimia haemolytica, Diagnostic Sensitivity Test Agar, 18 hours at 37°C
# Procedure: as §1
# Bord. bronchiseptica BO9 = assay: Veterinary bacteria MIC; details: Bordetella bronchiseptica, Diagnostic Sensitivity Test Agar, 18 hours at 37°C
# Procedure: as §1
# Bord. bronchiseptica BO8 = assay: Veterinary bacteria MIC; details: Bordetella bronchiseptica, Diagnostic Sensitivity Test Agar, 18 hours at 37°C
# Procedure: as §1
# Strep. uberis SPU1 = assay: Veterinary bacteria MIC; details: Streptococcus uberis, Diagnostic Sensitivity Test Agar, 18 hours at 37°C
# Procedure: as §1
# Staph. aureus 152 = assay: Veterinary bacteria MIC; details: Staphylococcus aureus, Diagnostic Sensitivity Test Agar, 18 hours at 37°C
# Procedure: as §1
# S. typhimurium S18 = assay: Veterinary bacteria MIC; details: Salmonella enterica, Diagnostic Sensitivity Test Agar, 18 hours at 37°C
# Procedure: as §1
# [2] = system: Strep. suis (group D) SPS11; assay: Veterinary bacteria MIC; details: Streptococcus suis, Diagnostic Sensitivity Test Agar, 18 hours at 37°C
# Procedure: as §1
# Strep. dysgalactiae SPD1 = assay: Veterinary bacteria MIC; details: Streptococcus dysgalactiae, Diagnostic Sensitivity Test Agar, 18 hours at 37°C
# Procedure: as §1
# Past. multocida PA1 = assay: Veterinary bacteria MIC; details: Pasteurella multocida, Diagnostic Sensitivity Test Agar, 18 hours at 37°C
# Procedure: as §1
# [3] = system: Erysipelothrix rhusiopathiae NCTC 8163; assay: Veterinary bacteria MIC; details: NCTC8163, Diagnostic Sensitivity Test Agar, 18 hours at 37°C
# Procedure: as §1
# S. dublin S7 = assay: Veterinary bacteria MIC; details: Salmonella enterica, Diagnostic Sensitivity Test Agar, 18 hours at 37°C
# Procedure: as §1
# E. Coli NCTC 10418 = assay: Veterinary bacteria MIC; details: Escherichia coli, NCTC10418, Diagnostic Sensitivity Test Agar, 18 hours at 37°C
# Procedure: as §1
# [4] = system: Corynebacterium pyogenes CY1; assay: Veterinary bacteria MIC; details: Trueperella pyogenes, Diagnostic Sensitivity Test Agar, 18 hours at 37°C
# Procedure: as §1
# Staph. aureus B4 = assay: Veterinary bacteria MIC; details: Staphylococcus aureus, Diagnostic Sensitivity Test Agar, 18 hours at 37°C
# Procedure: as §1
# Strep. agalactiae SPA1 = assay: Veterinary bacteria MIC; details: Streptococcus agalactiae, Diagnostic Sensitivity Test Agar, 18 hours at 37°C
# Procedure: as §1
# E. Coli E1 = assay: Veterinary bacteria MIC; details: Escherichia coli, Diagnostic Sensitivity Test Agar, 18 hours at 37°C
# Procedure: as §1
# M. dispar NCTC 10125 = assay: Anti-mycoplasmal in vitro MIC; details: 144 h, Friis broth solidified with 0.9% agarose, 6 days incubation at 37°C
# M. suipneumoniae Str. 11 = assay: Anti-mycoplasmal in vitro MIC; details: Mesomycoplasma hyopneumoniae, 144 h, Friis broth solidified with 0.9% agarose, 6 days incubation at 37°C
# M. suipneumoniae NB12 = assay: Anti-mycoplasmal in vitro MIC; details: Mesomycoplasma hyopneumoniae, 144 h, Friis broth solidified with 0.9% agarose, 6 days incubation at 37°C
# M. suipneumoniae LABER = assay: Anti-mycoplasmal in vitro MIC; details: Mesomycoplasma hyopneumoniae, 144 h, Friis broth solidified with 0.9% agarose, 6 days incubation at 37°C
# [5] = system: M. hyosynoviae ATCC 25591; assay: Anti-mycoplasmal in vitro MIC; details: 144 h, Friis broth solidified with 0.9% agarose, 6 days incubation at 37°C
# M. suipneumoniae MS 16 = assay: Anti-mycoplasmal in vitro MIC; details: Mesomycoplasma hyopneumoniae, MS16, 144 h, Friis broth solidified with 0.9% agarose, 6 days incubation at 37°C
# M. pneumoniae ATCC 15492 = assay: Anti-mycoplasmal in vitro MIC; details: Mycoplasmoides pneumoniae, ATCC15492, 144 h, Friis broth solidified with 0.9% agarose, 6 days incubation at 37°C
# M. hyorhinis ATCC 25021 = assay: Anti-mycoplasmal in vitro MIC; details: Mesomycoplasma hyorhinis, ATCC25021, 144 h, Friis broth solidified with 0.9% agarose, 6 days incubation at 37°C
# M. hyorhinis ATCC 23234 = assay: Anti-mycoplasmal in vitro MIC; details: Mesomycoplasma hyorhinis, ATCC23234, 144 h, Friis broth solidified with 0.9% agarose, 6 days incubation at 37°C
# [6] = system: M. bovigenitalium ATCC 14173; assay: Anti-mycoplasmal in vitro MIC; details: 144 h, Friis broth solidified with 0.9% agarose, 6 days incubation at 37°C
# Staph. aureus Oxford [7] = assay: Human bacteria MIC; details: Staphylococcus aureus, nutrient agar with 5% chocolated horse blood, 18 hours at 37°C
# Procedure: (§2) The values were determined by serial dilutions in nutrient agar with 5% chocolated horse blood after incubations for 18 hours at 37 °C.
# [8] = system: Pasteurella multocida 1633; assay: Human bacteria MIC; details: nutrient agar with 5% chocolated horse blood, 18 hours at 37°C
# Procedure: as §2
# Strep. faecalis I = assay: Human bacteria MIC; details: Enterococcus faecalis, nutrient agar with 5% chocolated horse blood, 18 hours at 37°C
# Procedure: as §2
# P. mirabilis 889 = assay: Human bacteria MIC; details: Proteus mirabilis, nutrient agar with 5% chocolated horse blood, 18 hours at 37°C
# Procedure: as §2
# [9] = system: M. suipneumoniae NCTC 10110; assay: Anti-mycoplasmal in vitro MIC; details: Mesomycoplasma hyopneumoniae, NCTC10110, 144 h, Friis broth solidified with 0.9% agarose, 6 days incubation at 37°C
# [10] = system: M. suipneumoniae PW/C/210; assay: Anti-mycoplasmal in vitro MIC; details: Mesomycoplasma hyopneumoniae, 144 h, Friis broth solidified with 0.9% agarose, 6 days incubation at 37°C
# M. suipneumoniae TAM 6N = assay: Anti-mycoplasmal in vitro MIC; details: Mesomycoplasma hyopneumoniae, TAM6N, 144 h, Friis broth solidified with 0.9% agarose, 6 days incubation at 37°C
# M. suipneumoniae JF 435 = assay: Anti-mycoplasmal in vitro MIC; details: Mesomycoplasma hyopneumoniae, JF435, 144 h, Friis broth solidified with 0.9% agarose, 6 days incubation at 37°C
Structure (SMILES),MIC (Past. multocida PA2),MIC (Staph. aureus Oxford [1]),MIC (Past. haemolytica PA5),MIC (Bord. bronchiseptica BO9),MIC (Bord. bronchiseptica BO8),MIC (Strep. uberis SPU1),MIC (Staph. aureus 152),MIC (S. typhimurium S18),MIC [2],MIC (Strep. dysgalactiae SPD1),MIC (Past. multocida PA1),MIC [3],MIC (S. dublin S7),MIC (E. Coli NCTC 10418),MIC [4],MIC (Staph. aureus B4),MIC (Strep. agalactiae SPA1),MIC (E. Coli E1),MIC (M. dispar NCTC 10125),MIC (M. suipneumoniae Str. 11),other results
"C/C(=C\C(=O)OCc1ccccc1C#N)CC1OCC(CC2OC2C(C)C(C)O)C(O)C1O (stereo not drawn) [Example 1, o-Cyanobenzyl monate A]",0.156 µg/mL,1.25 µg/mL,10 µg/mL,10 µg/mL,> 80 µg/mL,0.156 µg/mL,1.25 µg/mL,> 80 µg/mL,10 µg/mL,0.312 µg/mL,1.25 µg/mL,80 µg/mL,> 80 µg/mL,> 80 µg/mL,> 80 µg/mL,1.25 µg/mL,2.5 µg/mL,> 80 µg/mL,0.25 µg/mL,1 µg/mL,MIC (M. suipneumoniae NB12): 0.5 µg/mL; MIC (M. suipneumoniae LABER): 0.5 µg/mL; MIC [5]: ≤ 0.01 µg/mL; MIC (M. suipneumoniae MS 16): 0.5 µg/mL; MIC (M. pneumoniae ATCC 15492): 2.5 µg/mL; MIC (M. hyorhinis ATCC 25021): 0.5 µg/mL; MIC (M. hyorhinis ATCC 23234): 0.5 µg/mL; MIC [6]: ≤ 0.01 µg/mL; MIC (Staph. aureus Oxford [7]): 1 µg/mL; MIC [8]: 1 µg/mL; MIC (Strep. faecalis I): > 100 µg/mL; MIC (P. mirabilis 889): > 100 µg/mL; MIC [9]: 1 µg/mL; MIC [10]: 0.5 µg/mL; MIC (M. suipneumoniae TAM 6N): 2.5 µg/mL; MIC (M. suipneumoniae JF 435): 1 µg/mL
"C/C(=C\C(=O)OCc1cccc(C#N)c1)CC1OCC(CC2OC2C(C)C(C)O)C(O)C1O (stereo not drawn) [Example 2, m-Cyanobenzyl monate A]",0.156 µg/mL,0.625 µg/mL,2.5 µg/mL,10 µg/mL,20 µg/mL,0.312 µg/mL,0.625 µg/mL,80 µg/mL,2.5 µg/mL,0.312 µg/mL,0.625 µg/mL,20 µg/mL,80 µg/mL,80 µg/mL,> 80 µg/mL,1.25 µg/mL,0.625 µg/mL,80 µg/mL,0.025 µg/mL,0.05 µg/mL,MIC (M. suipneumoniae NB12): 0.05 µg/mL; MIC (M. suipneumoniae LABER): 0.05 µg/mL; MIC [5]: 0.05 µg/mL; MIC (M. suipneumoniae MS 16): 0.05 µg/mL; MIC (M. pneumoniae ATCC 15492): 0.5 µg/mL; MIC (M. hyorhinis ATCC 25021): 0.025 µg/mL; MIC (M. hyorhinis ATCC 23234): 0.025 µg/mL; MIC [6]: ≤ 0.01 µg/mL; MIC (Staph. aureus Oxford [7]): 1 µg/mL; MIC [8]: 1 µg/mL; MIC (Strep. faecalis I): 100 µg/mL; MIC (P. mirabilis 889): 100 µg/mL; MIC [9]: 0.05 µg/mL; MIC [10]: 0.05 µg/mL; MIC (M. suipneumoniae TAM 6N): 0.1 µg/mL; MIC (M. suipneumoniae JF 435): 0.1 µg/mL
